Source: ChEMBL document CHEMBL4411291, “Synthesis and anti-tumor activity of imidazopyrazines as TAK1 inhibitors” (Eur J Med Chem, 2019)
Activity calls are given as the source filed them. No cut-off for these calls is given here.

Key:
[1] = molecular target: T1, Mitogen-activated protein kinase kinase kinase 7 (Homo sapiens) (UniProt O43318); test: Inhibition of TAK1 (unknown origin) at 1 uM by LanthaScreen Eu kinase binding assay relative to control
T1 sequence (whole entry): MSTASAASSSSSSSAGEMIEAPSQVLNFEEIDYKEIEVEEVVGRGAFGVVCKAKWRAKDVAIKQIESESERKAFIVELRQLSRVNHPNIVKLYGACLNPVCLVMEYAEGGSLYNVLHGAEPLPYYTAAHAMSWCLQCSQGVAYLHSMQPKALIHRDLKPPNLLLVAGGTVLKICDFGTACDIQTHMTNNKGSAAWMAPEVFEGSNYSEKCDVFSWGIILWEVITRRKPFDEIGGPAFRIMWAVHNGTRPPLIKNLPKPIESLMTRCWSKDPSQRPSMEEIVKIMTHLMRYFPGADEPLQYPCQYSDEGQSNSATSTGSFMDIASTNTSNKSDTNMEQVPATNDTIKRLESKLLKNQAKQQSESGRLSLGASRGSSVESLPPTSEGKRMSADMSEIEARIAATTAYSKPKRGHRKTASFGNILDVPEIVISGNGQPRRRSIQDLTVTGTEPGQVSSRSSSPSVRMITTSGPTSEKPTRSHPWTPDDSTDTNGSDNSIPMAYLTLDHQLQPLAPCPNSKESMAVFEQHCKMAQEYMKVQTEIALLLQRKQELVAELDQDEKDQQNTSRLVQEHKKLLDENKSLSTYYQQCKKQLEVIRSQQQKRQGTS

[2] = molecular target: T1, Mitogen-activated protein kinase kinase kinase 7 (Homo sapiens); test: Inhibition of TAK1 (unknown origin) at 0.1 uM by LanthaScreen Eu kinase binding assay relative to control
[3] = molecular target: Inhibitor of nuclear factor kappa-B kinase subunit beta (Homo sapiens) (UniProt O14920); test: Inhibition of IKKbeta (unknown origin) at 1 uM by LanthaScreen Eu kinase binding assay relative to control
[4] = molecular target: Platelet-derived growth factor receptor alpha (Homo sapiens) (UniProt P16234); test: Inhibition of PDGFRalpha (unknown origin) at 1 uM by LanthaScreen Eu kinase binding assay relative to control
[5] = molecular target: Ribosomal protein S6 kinase alpha-1 (Homo sapiens) (UniProt Q15418); test: Inhibition of RPS6KA1 (unknown origin) at 1 uM by LanthaScreen Eu kinase binding assay relative to control
Cytochrome P450 3A4 = Cytochrome P450 3A4 (Homo sapiens, UniProt P08684); test: Inhibition of CYP3A4 in liver microsomes (unknown origin) using ketoconazole as […] preincubated for 5 mins followed by NADPH addition and measured after 15 mins by LC-MS/MS analysis; type: ADME
[6] = Stability in human liver microsomes assessed as parent compound remaining after 60 mins in presence of NADPH by HPLC analysis; type: ADME, Microsome; conditions: read-out: Stability
[7] = Cmax in ICR mouse at 8.2 mg/kg, po administered as single dose or 3 mg/kg, iv by LC-MS/MS analysis; type: ADME, organism-based; conditions: in vivo
SK-CO-1 = test: Growth inhibition of human SKCO1 cells after 96 hrs by SRB assay; type: functional, cell-based; conditions: SK-CO-1, 96 h
Cytochrome P450 2C19 = Cytochrome P450 2C19 (Homo sapiens, UniProt P33261); test: Inhibition of CYP2C19 in liver microsomes (unknown origin) using (+/-) N-3-benzylnirvanol as […] preincubated for 5 mins followed by NADPH addition and measured after 15 mins by LC-MS/MS analysis; type: ADME
LoVo = test: Growth inhibition of human LoVo cells after 96 hrs by SRB assay; type: functional, cell-based
[8] = Half life in ICR mouse at 8.2 mg/kg, po administered as single dose or 3 mg/kg, iv by LC-MS/MS analysis; type: ADME, organism-based; conditions: in vivo
Cytochrome P450 2C9 = Cytochrome P450 2C9 (Homo sapiens, UniProt P11712); test: Inhibition of CYP2C9 in liver microsomes (unknown origin) using sulfaphenazole as […] preincubated for 5 mins followed by NADPH addition and measured after 15 mins by LC-MS/MS analysis; type: ADME
[9] = Oral bioavailability in ICR mouse at 8.2 mg/kg administered as single dose by LC-MS/MS analysis; type: ADME, organism-based; conditions: in vivo
[10] = molecular target: High affinity nerve growth factor receptor (Homo sapiens) (UniProt P04629); test: Inhibition of NTRK1 (unknown origin) at 1 uM by LanthaScreen Eu kinase binding assay relative to control
[11] = molecular target: Voltage-gated inwardly rectifying potassium channel KCNH2 (Homo sapiens, UniProt Q12809); test: Binding affinity to human ERG by fluorescence polarization assay
SW-620 [12] = test: Induction of apoptosis in human SW620 cells assessed as Caspase-3 activity at 10 uM after 24 hrs by Caspase-3/7 reagent-based fluorescence assay; type: functional, cell-based
[13] = Stability in human plasma assessed as parent compound remaining after 6 hrs by LC-MS/MS analysis; type: ADME, cell-free; conditions: read-out: Stability
[14] = molecular target: CDK2/Cyclin A2 (Homo sapiens) (UniProt P24941+P20248); test: Inhibition of CDK2/cyclin A (unknown origin) at 1 uM by LanthaScreen Eu kinase binding assay relative to control; type: protein-complex assay
[15] = molecular target: Tyrosine-protein kinase BTK (Homo sapiens) (UniProt Q06187); test: Inhibition of BTK (unknown origin) at 1 uM by LanthaScreen Eu kinase binding assay relative to control
SW-620 [16] = test: Antitumor activity against human SW620 cells xenografted in CAnN.Cg-Foxnlnu/Crljbgi nude mouse assessed as tumor growth inhibition at 100 mg/kg, po dosed daily for 14 consecutive days; type: functional, organism-based
[17] = molecular target: Epidermal growth factor receptor (Homo sapiens) (UniProt P00533); test: Inhibition of EGFR (unknown origin) at 1 uM by LanthaScreen Eu kinase binding assay relative to control
[18] = molecular target: T1, Mitogen-activated protein kinase kinase kinase 7 (Homo sapiens); test: Inhibition of TAK1 phosphorylation in human SW620 cells after 24 hrs by immunoblotting analysis; type: cell-based
[19] = molecular target: Serine/threonine-protein kinase B-raf (Homo sapiens) (UniProt P15056); test: Inhibition of BRAF (unknown origin) at 1 uM by LanthaScreen Eu kinase binding assay relative to control
TAK1/TAB1 = TAK1/TAB1 (Homo sapiens, UniProt O43318); test: Inhibition of N-terminal His-tagged human TAK1 (1 to 303 amino acids)/human TAB1 (437 to 504 amino acids) expressed in baculovirus expression system using fluorescence-labeled substrate by off-chip mobility shift assay
[20] = molecular target: Mitogen-activated protein kinase 14 (Homo sapiens) (UniProt Q16539); test: Inhibition of […] (unknown origin) at 1 uM by LanthaScreen Eu kinase binding assay relative to control
[21] = Toxicity in CAnN.Cg-Foxnlnu/Crljbgi nude mouse xenografted with human SW620 cells assessed as weight loss at 100 mg/kg, po dosed daily for 14 consecutive days; type: organism-based; conditions: in vivo
[22] = molecular target: Glycogen synthase kinase-3 beta (Homo sapiens) (UniProt P49841); test: Inhibition of GSK3b (unknown origin) at 1 uM by LanthaScreen Eu kinase binding assay relative to control
Cytochrome P450 2B6 = Cytochrome P450 2B6 (Homo sapiens, UniProt P20813); test: Inhibition of CYP2B6 in liver microsomes (unknown origin) using clopidogrel as […] preincubated for 5 mins followed by NADPH addition and measured after 15 mins by LC-MS/MS analysis; type: ADME
[23] = Stability in mouse liver microsomes assessed as parent compound remaining after 60 mins in presence of NADPH by HPLC analysis; type: ADME, Microsome; conditions: read-out: Stability
[24] = Toxicity in CAnN.Cg-Foxnlnu/Crljbgi nude mouse xenografted with human SW620 cells at 100 mg/kg, po dosed daily for 14 consecutive days; type: organism-based; conditions: in vivo
Cytochrome P450 1A2 = Cytochrome P450 1A2 (Homo sapiens, UniProt P05177); test: Inhibition of CYP1A2 in liver microsomes (unknown origin) using alpha-naphthoflavone as […] preincubated for 5 mins followed by NADPH addition and measured after 15 mins by LC-MS/MS analysis; type: ADME
[25] = Stability in mouse plasma assessed as parent compound remaining after 6 hrs by LC-MS/MS analysis; type: ADME, cell-free; conditions: read-out: Stability
SW-620 [26] = test: Growth inhibition of human SW620 cells after 96 hrs by SRB assay; type: functional, cell-based; conditions: SW-620, 96 h
[27] = AUC (0 to 7 hrs) in ICR mouse at 8.2 mg/kg, po administered as single dose or 3 mg/kg, iv by LC-MS/MS analysis; type: ADME, organism-based; conditions: in vivo
[28] = Half life in ICR mouse at 10 mg/kg, po administered as single dose or 3 mg/kg, iv by LC-MS/MS analysis; type: ADME, organism-based; conditions: in vivo
[29] = AUC (0 to 7 hrs) in ICR mouse at 10 mg/kg, po administered as single dose or 3 mg/kg, iv by LC-MS/MS analysis; type: ADME, organism-based; conditions: in vivo
[30] = Oral bioavailability in ICR mouse at 10 mg/kg administered as single dose by LC-MS/MS analysis; type: ADME, organism-based; conditions: in vivo
[31] = Cmax in ICR mouse at 10 mg/kg, po administered as single dose or 3 mg/kg, iv by LC-MS/MS analysis; type: ADME, organism-based; conditions: in vivo

Sequence of TAK1/TAB1 (Q15750 whole entry, one chain of several, the tested form may be a part): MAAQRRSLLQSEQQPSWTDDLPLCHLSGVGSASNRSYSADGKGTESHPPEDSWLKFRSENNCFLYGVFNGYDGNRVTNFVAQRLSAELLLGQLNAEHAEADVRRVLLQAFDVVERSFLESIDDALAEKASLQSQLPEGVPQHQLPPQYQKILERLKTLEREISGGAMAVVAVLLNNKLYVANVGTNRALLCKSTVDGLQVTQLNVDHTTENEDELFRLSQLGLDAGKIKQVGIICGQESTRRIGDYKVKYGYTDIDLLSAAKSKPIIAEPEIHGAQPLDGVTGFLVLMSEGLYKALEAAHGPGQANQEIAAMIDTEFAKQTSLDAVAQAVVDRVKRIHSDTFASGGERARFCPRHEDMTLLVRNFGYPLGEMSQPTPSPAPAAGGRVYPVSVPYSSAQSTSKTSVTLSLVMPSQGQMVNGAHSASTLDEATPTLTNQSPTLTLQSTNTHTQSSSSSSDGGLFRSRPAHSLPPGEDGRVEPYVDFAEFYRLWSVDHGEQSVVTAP
Sequence of Cytochrome P450 2C9 (P11712 whole entry): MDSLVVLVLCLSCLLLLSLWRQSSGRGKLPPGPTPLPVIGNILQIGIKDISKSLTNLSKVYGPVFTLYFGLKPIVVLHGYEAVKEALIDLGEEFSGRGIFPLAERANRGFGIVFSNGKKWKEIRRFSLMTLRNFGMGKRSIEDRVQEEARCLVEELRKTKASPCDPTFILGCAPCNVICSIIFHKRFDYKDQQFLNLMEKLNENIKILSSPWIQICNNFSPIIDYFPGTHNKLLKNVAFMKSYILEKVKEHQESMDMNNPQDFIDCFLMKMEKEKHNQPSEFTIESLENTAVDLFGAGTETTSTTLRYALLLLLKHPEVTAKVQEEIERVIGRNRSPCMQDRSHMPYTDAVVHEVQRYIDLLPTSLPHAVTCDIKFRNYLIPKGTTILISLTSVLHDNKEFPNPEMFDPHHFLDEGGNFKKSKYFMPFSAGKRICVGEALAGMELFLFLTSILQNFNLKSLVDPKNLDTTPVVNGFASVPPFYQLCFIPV
Sequence of Voltage-gated inwardly rectifying potassium channel KCNH2 (Q12809 whole entry): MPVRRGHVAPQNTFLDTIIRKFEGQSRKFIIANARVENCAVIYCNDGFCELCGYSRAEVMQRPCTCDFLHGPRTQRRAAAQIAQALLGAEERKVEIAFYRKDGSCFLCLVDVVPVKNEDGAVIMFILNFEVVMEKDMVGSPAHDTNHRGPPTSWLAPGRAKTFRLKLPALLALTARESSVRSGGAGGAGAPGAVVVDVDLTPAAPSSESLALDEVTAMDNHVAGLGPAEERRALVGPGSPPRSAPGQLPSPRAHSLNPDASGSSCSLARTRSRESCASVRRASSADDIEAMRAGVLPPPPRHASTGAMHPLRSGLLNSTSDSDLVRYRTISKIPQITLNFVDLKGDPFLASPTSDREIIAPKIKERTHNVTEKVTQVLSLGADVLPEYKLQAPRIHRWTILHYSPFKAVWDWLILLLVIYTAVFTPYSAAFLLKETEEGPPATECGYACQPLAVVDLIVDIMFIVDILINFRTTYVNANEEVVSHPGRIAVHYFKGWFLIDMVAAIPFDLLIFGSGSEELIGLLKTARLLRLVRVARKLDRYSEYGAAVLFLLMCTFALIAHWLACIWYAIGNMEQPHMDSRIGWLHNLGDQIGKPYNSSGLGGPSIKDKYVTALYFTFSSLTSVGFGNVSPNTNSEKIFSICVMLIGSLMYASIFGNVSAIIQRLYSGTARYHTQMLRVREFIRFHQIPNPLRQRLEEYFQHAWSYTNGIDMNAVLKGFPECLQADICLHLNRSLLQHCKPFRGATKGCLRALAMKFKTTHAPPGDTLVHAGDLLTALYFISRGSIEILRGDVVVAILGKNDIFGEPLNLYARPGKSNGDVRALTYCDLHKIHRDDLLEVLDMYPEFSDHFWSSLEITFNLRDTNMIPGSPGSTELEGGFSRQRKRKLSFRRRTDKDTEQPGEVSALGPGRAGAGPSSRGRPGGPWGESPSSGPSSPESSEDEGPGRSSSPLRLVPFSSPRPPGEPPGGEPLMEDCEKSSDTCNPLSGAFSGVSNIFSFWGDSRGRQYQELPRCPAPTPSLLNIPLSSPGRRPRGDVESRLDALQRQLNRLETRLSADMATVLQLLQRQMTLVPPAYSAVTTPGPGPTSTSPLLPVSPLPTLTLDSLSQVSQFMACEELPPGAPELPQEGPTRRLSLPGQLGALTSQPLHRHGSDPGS
Sequence of Cytochrome P450 3A4 (P08684 whole entry): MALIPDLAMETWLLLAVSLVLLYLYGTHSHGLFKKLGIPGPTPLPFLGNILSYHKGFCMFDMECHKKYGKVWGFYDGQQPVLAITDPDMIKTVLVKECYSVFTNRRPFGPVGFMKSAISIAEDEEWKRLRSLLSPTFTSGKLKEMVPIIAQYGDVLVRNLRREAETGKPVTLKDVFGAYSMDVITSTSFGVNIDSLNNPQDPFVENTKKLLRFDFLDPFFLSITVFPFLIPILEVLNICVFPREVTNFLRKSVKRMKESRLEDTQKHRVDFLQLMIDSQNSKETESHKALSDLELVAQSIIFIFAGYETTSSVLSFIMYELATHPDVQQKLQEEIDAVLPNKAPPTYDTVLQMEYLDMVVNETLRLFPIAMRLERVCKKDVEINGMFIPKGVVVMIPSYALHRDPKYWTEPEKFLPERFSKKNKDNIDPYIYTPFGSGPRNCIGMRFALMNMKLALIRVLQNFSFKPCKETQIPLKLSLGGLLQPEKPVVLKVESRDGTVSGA
Sequence of Mitogen-activated protein kinase 14 (Homo sapiens) (Q16539 whole entry): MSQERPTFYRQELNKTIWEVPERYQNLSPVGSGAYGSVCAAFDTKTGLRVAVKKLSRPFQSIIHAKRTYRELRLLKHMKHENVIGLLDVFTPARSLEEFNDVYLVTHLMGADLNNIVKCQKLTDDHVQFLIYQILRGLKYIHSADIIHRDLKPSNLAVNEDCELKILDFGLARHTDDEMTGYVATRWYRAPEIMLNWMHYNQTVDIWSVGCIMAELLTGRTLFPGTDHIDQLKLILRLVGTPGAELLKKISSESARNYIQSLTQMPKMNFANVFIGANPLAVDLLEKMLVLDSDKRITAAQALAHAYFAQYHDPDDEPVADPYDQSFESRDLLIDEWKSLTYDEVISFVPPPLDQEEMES
Sequence of Cytochrome P450 2B6 (P20813 whole entry): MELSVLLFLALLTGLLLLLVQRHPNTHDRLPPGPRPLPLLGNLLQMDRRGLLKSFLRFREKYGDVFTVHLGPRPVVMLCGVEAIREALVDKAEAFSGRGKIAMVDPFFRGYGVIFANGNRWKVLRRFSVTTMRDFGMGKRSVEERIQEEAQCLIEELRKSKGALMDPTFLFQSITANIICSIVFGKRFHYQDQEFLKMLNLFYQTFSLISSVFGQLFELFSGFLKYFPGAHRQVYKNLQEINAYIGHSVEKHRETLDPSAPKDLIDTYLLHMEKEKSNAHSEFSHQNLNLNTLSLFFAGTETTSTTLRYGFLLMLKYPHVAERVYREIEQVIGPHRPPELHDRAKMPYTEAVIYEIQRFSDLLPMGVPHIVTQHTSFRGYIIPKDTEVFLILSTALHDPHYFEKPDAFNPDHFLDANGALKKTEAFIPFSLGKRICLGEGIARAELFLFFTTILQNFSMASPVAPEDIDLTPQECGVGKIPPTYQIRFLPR
Sequence of Epidermal growth factor receptor (Homo sapiens) (P00533 whole entry): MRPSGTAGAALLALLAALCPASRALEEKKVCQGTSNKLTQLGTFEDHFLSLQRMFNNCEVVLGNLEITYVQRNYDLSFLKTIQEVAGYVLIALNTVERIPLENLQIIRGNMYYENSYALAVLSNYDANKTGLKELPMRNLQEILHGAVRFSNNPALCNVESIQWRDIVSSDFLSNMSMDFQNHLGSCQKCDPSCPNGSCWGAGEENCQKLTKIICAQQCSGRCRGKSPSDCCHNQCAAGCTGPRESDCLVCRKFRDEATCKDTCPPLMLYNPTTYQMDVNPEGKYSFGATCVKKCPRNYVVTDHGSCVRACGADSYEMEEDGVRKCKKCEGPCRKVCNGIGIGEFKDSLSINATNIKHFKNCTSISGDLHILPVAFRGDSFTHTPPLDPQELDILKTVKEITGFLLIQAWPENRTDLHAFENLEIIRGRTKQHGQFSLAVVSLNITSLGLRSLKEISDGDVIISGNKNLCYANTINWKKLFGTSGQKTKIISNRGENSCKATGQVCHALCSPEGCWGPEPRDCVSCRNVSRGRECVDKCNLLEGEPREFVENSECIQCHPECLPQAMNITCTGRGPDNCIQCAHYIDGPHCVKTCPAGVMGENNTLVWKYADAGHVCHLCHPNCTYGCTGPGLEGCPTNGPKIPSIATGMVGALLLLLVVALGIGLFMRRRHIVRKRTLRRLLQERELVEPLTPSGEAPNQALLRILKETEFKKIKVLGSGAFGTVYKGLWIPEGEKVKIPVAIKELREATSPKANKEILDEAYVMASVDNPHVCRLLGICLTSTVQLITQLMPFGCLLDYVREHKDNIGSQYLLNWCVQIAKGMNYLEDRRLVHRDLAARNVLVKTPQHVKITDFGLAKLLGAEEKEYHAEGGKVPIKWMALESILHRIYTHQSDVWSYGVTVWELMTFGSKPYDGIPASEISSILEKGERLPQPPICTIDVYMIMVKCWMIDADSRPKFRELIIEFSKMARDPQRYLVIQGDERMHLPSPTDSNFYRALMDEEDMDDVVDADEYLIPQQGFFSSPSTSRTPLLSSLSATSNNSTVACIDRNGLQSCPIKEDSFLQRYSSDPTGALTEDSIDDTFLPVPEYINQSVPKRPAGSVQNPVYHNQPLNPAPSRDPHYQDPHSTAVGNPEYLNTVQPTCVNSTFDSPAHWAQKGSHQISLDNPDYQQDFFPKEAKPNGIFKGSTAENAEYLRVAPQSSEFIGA

SMILES: Cc1cc(C(=O)Nc2cc(C(C)(C)C)nn2-c2ccccc2)ccc1Oc1cnc(NC2CC2)c2nccn12
- inhibition [1]: 3%
- inhibition [2]: 4%

SMILES: Cc1cc(NC(=O)Nc2cc(C(C)(C)C)nn2-c2ccccc2)ccc1-c1cnc(NC2CC2)c2nccn12
- inhibition [3]: 0%
- inhibition [4]: 88%
- inhibition [5]: 4%
- IC50 (Cytochrome P450 3A4): 3520 nM
- remaining at 1 h [6]: 37%
- Cmax [7]: 1930 ng/mL
- inhibition [1]: 98%
- IC50 (SK-CO-1): 274 nM
- IC50 (Cytochrome P450 2C19): > 25000 nM
- IC50 (LoVo): 391 nM
- half-life [8]: 1.6 h
- IC50 (Cytochrome P450 2C9): 3500 nM
- bioavailability [9]: 25.2%
- inhibition [10]: 82%
- IC50 [11]: > 50000 nM
- Activity (SW-620 [12]): Active
- inhibition [2]: 56%
- remaining at 6 h [13]: 90%
- inhibition [14]: 1%
- inhibition [15]: 0%
- Activity (SW-620 [16]): Active
- inhibition [17]: 45%
- inhibition [18]: Dose-dependent effect
- inhibition [19]: 37%
- IC50 (TAK1/TAB1): 37 nM
- inhibition [20]: 82%
- Activity [21]: Non-Toxic
- inhibition [22]: 51%
- IC50 (Cytochrome P450 2B6): > 25000 nM
- remaining at 1 h [23]: 44%
- Activity [24]: Non-Toxic
- IC50 (Cytochrome P450 1A2): > 25000 nM
- remaining at 6 h [25]: 88%
- IC50 (SW-620 [26]): 330 nM
- AUC(0-t) [27]: 3140 ng·h/mL

SMILES: Cc1cc(NC(=O)Nc2cc(C(C)(C)C)nn2-c2cccc(C#N)c2)ccc1-c1cnc(NC2CC2)c2ncnn12
- inhibition [1]: 92%
- inhibition [2]: 36%

SMILES: Cc1ccc(C(=O)Nc2cc(C(C)(C)C)nn2-c2ccccc2)cc1Oc1cnc(NC2CC2)c2nccn12
- inhibition [1]: 0%
- inhibition [2]: 0%

SMILES: Cc1cc(NC(=O)Nc2cc(C(C)(C)C)nn2-c2ccccc2)ccc1Oc1cnc(NC2CC2)c2nccn12
- inhibition [1]: 90%
- inhibition [2]: 20%

SMILES: Cc1cc(NC(=O)Nc2cc(C(C)(C)C)nn2-c2cccc(C#N)c2)ccc1Oc1cnc(NC2CC2)c2nccn12
- inhibition [1]: 76%
- inhibition [2]: 0%

SMILES: Cc1cc(NC(=O)Nc2cc(C(C)(C)C)nn2-c2cccc([N+](=O)[O-])c2)ccc1-c1cnc(NC2CC2)c2ncnn12
- inhibition [1]: 90%
- inhibition [2]: 26%

SMILES: Cc1cc(NC(=O)Nc2cc(C(C)(C)C)nn2-c2cccc(C#N)c2)ccc1-c1cnc(NC2CC2)c2nccn12
- remaining at 1 h [6]: 33%
- inhibition [1]: 97%
- half-life [28]: 2.4 h
- AUC(0-t) [29]: 360 ng·h/mL
- bioavailability [30]: 3.1%
- inhibition [2]: 49%
- remaining at 6 h [13]: 100%
- Cmax [31]: 231 ng/mL
- IC50 (TAK1/TAB1): 41 nM
- remaining at 1 h [23]: 37%
- remaining at 6 h [25]: 88%
- IC50 (SW-620 [26]): 169 nM

SMILES: Cc1cc(NC(=O)Nc2cc(C(C)(C)C)nn2-c2cccc(F)c2)ccc1-c1cnc(NC2CC2)c2nccn12
- inhibition [1]: 94%
- inhibition [2]: 34%
